For the compound `CCC(CC)c1c(O)nn2c(-c3ccc(Cl)cc3Cl)c(C)cnc12` [Example 92, 7-(2,4-dichlorophenyl)-2-hydroxy-6-methyl-3-(3-pentyl)pyrazolo[1,5-a]pyrimidine], the melting point (in general, the temperature, or range, at which the solid turns liquid) fell in the range of 227 to 228 °C.
